Results: US11384106B2, “Metal tricarbonyl complexes comprising substituted iminodiactic acid ligands and uses as radioisotope tracers” (priority 2015, dated 2022)

How the values were obtained:
[1] = relative to ^131I-OIH; cited from earlier work
[2] = Stability of ^18F radiotracer solution (pH 7) by HPLC; format: physicochemical; conditions: incubated for 23 hours
Experimental: Re(CO)3(^18FFEDA) (3) was prepared by reacting the corresponding tosyl precursor, rheniumtricarbonyl-N-ethyltosylate iminodiacetate, Re(CO)3(TsDA), with [18F]fluoride ion (^18F) in anhydrous acetonitrile in the presence of K2CO3 and Kryptofix 222 at 110° C. for 20 min in a chemical processing control unit (CPCU). The resulting radiolabeled product was purified by semi-preparative high performance liquid chromatography (HPLC) using a Waters XTerra Prep RP 18 column (5 jam, 19×100 mm) and eluted with a mobile phase of 0.05 M triethylammonium phosphate (TEAP) buffer (pH=7)/ethanol (80:20 v/v) at a flow rate of 6 mL/min. The solution of the ^18F radiotracer (pH 7) was analyzed by HPLC for stability for up to 23 h.

[3] = Stability of ^99mTc tracer at physiological pH / physiological conditions
[4] = tested on: plasma protein; experiment: Plasma protein binding (PPB) from 10 min blood samples; format: in vitro ADME; conditions: rats
Experimental: (§1) ^99mTc(CO)^3(FEDA) was evaluated in rats using ^131I-OIH as an internal control; urine was analyzed for metabolites. Plasma protein binding (PPB) and erythrocyte uptake (RCB) were determined from the 10 min blood samples. The Re(CO)3 analog was prepared for structural characterization.

[5] = tested on: erythrocyte; experiment: Erythrocyte uptake (RCB) from 10 min blood samples; format: in vitro ADME; conditions: rats
Experimental: as §1

[6] = Evaluation in rats using ^131I-OIH as internal control (blood clearance, renal excretion, urine metabolites); format: in vivo; conditions: for % injected dose in the urine, as % of that of ^131I-OIH: relative to ^131I-OIH internal control
Experimental: as §1

O=C([O-])CN=C([O-])CN=C([O-])CN=C([O-])C[S-].[O-2].[Tc+4] [^99mTc-MAG3, ^99mTc-mercaptoacetyltriglycine]
Clearance compared to ^131I-OIH [1]: 50-65%

Re(CO)3(N-(2-^18fluoroethyl)iminodiacetate) [Re(CO)3(^18FFEDA)]
Stability by HPLC analysis after incubation [2]: only intact

^99mTc(CO)3(N-(2-fluoroethyl)iminodiacetate) [^99mTc(CO)3(FEDA)]
Stability (time stable) ([3]; physiological conditions): at least 1 d | Stability (time stable) ([3]; physiological pH): ≥ 24 h | Plasma protein binding (PPB) [4]: 61% | Erythrocyte uptake (RCB) [5]: 20% | Clearance compared with ^131I-OIH ([6]; compared with gold standard ^131I-OIH): comparable to the gold standard | Renal excretion ([6]; rat studies, compared with ^99mTc-MAG3): rapid renal excretion | Blood clearance ([6]; rats): rapid blood clearance | Specificity for renal excretion ([6]; rats): high specificity for renal excretion | Uptake in other organs ([6]; rats): lack of significant uptake in other organs | % injected dose in the urine, as % of that of ^131I-OIH ([6]; rats, 10 min after injection): 100% | % injected dose in the urine, as % of that of ^131I-OIH ([6]; rats, 60 min after injection): 99% | Metabolites in urine (form in which the tracer is excreted) ([6]; rats, urine analyzed for metabolites): secreted intact in the urine
